Source: PubChem BioAssay AID248 (DTP/NCI, 2004)
Where “and” joins values, the source holds several entries; their conditions need not be identical. Equal entries are not always repeated. Inconclusive results and toxic doses are left out. Rule as the data show it: active = T/C of 150% or more; inactive = T/C below 125%.

Test system: L1210 leukemia ip in BDF1 mice, survival T/C
Assay: NCI In Vivo Anticancer Drug Screen. Data for tumor model L1210 Leukemia (intraperitoneal) in B6D2F1 (BDF1) mice
Conditions: endpoint: mean survival time, higher = longer survival
How it was run: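 Antitumor effect is assessed in tumor-bearing animals. Survival in the compound arm is compared with a vehicle-dosed control arm and expressed as their quotient.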

[1] = dose: 50.0 mg/kg/injection, schedule: Q04DX003 (ip), vehicle: saline
[2] = dose: 100.0 mg/kg/injection, schedule: Q01DX001 (ip), vehicle: saline
[3] = dose: 100.0 mg/kg/injection, schedule: Q04DX003 (ip), vehicle: saline
[4] = dose: 200.0 mg/kg/injection, schedule: Q01DX001 (ip), vehicle: saline
[5] = dose: 200.0 mg/kg/injection, schedule: Q04DX003 (ip), vehicle: saline
[6] = dose: 400.0 mg/kg/injection, schedule: Q01DX001 (ip), vehicle: saline
[7] = dose: 100.0 mg/kg/injection, schedule: Q04DX003 (ip), vehicle: Klucel (hydroxypropylcellulose) (HPC)
[8] = dose: 200.0 mg/kg/injection, schedule: Q04DX003 (ip), vehicle: Klucel (hydroxypropylcellulose) (HPC)
[9] = dose: 400.0 mg/kg/injection, schedule: Q04DX003 (ip), vehicle: Klucel (hydroxypropylcellulose) (HPC)

Measured: T/C

Nc1ncnc2c1ncn2C1OC(C(=O)NCC(=O)O)C(O)C1O (configuration not stated)
inactive: dose: 100.0 mg/kg/injection, schedule: Q01DX005 (ip), vehicle: saline 113 % of control | dose: 200.0 mg/kg/injection, schedule: Q01DX005 (ip), vehicle: saline 100 % of control | dose: 400.0 mg/kg/injection, schedule: Q01DX005 (ip), vehicle: saline 101 % of control

CNC(=O)CCC(=O)O
inactive: [1] 103 % of control | [2] 102 % of control | [3] 107 % of control | [4] 93 % of control | [5] 108 % of control | [6] 94 % of control

CCOC(Nc1ccc(Cl)cc1Cl)C(=O)c1ccccc1 (configuration not stated)
inactive: [2] 97 % of control | [4] 101 % of control | [6] 101 % of control

NC(=O)c1ccc[n+](Cc2c(Cl)cccc2Cl)c1
inactive: dose: 1.56 mg/kg/injection, schedule: Q01DX009 (ip), vehicle: saline 111 % of control | dose: 3.12 mg/kg/injection, schedule: Q01DX009 (ip), vehicle: saline 122 % of control | dose: 6.25 mg/kg/injection, schedule: Q01DX009 (ip), vehicle: saline 122 % of control

CCOC(=O)c1cnc(SC)nc1Nc1ccc(OC)cc1
inactive: dose: 100.0 mg/kg/injection, schedule: Q01DX009 (ip), vehicle: Klucel (hydroxypropylcellulose) (HPC) 96 % of control | [7] 95 % of control | dose: 200.0 mg/kg/injection, schedule: Q01DX009 (ip), vehicle: Klucel (hydroxypropylcellulose) (HPC) 91 % of control | [8] 98 % of control | dose: 400.0 mg/kg/injection, schedule: Q01DX009 (ip), vehicle: Klucel (hydroxypropylcellulose) (HPC) 94 % of control | [9] 90 % of control

O=C(O)CNC(=O)c1cccc([N+](=O)[O-])c1
inactive: [7] 99 % of control | [8] 101 % of control | [9] 94 % of control

CC(C)(C)C(=O)CC(=O)C(C)(C)C.CC(C)(C)C(=O)CC(=O)C(C)(C)C.CC(C)(C)C(=O)CC(=O)C(C)(C)C.CC(C)(C)C(=O)CC(=O)C(C)(C)C.[Er]
inactive: dose: 100.0 mg/kg/injection, schedule: Q04DX003 (ip), vehicle: saline with Tween-80 108 % of control | dose: 200.0 mg/kg/injection, schedule: Q04DX003 (ip), vehicle: saline with Tween-80 92 % of control | dose: 400.0 mg/kg/injection, schedule: Q04DX003 (ip), vehicle: saline with Tween-80 88 % of control

CCCCCCCCCCCCCC(=O)N(CCCC)CCCC
inactive: dose: 50.0 mg/kg/injection, schedule: Q01DX009 (ip), vehicle: carboxymethylcellulose (CMC) 98 % of control and 90 % of control | dose: 100.0 mg/kg/injection, schedule: Q01DX001 (ip), vehicle: carboxymethylcellulose (CMC) 94 % of control | dose: 100.0 mg/kg/injection, schedule: Q04DX003 (ip), vehicle: carboxymethylcellulose (CMC) 95 % of control | dose: 200.0 mg/kg/injection, schedule: Q01DX001 (ip), vehicle: carboxymethylcellulose (CMC) 93 % of control | dose: 200.0 mg/kg/injection, schedule: Q04DX003 (ip), vehicle: carboxymethylcellulose (CMC) 92 % of control | dose: 400.0 mg/kg/injection, schedule: Q01DX001 (ip), vehicle: carboxymethylcellulose (CMC) 98 % of control | dose: 400.0 mg/kg/injection, schedule: Q01DX009 (ip), vehicle: carboxymethylcellulose (CMC) 95 % of control and 104 % of control | dose: 400.0 mg/kg/injection, schedule: Q04DX003 (ip), vehicle: carboxymethylcellulose (CMC) 96 % of control

Oc1ccc(C2(CCl)OCCO2)cc1
inactive: dose: 25.0 mg/kg/injection, schedule: Q01DX001 (ip), vehicle: saline with Tween-80 98 % of control | dose: 50.0 mg/kg/injection, schedule: Q01DX001 (ip), vehicle: saline with Tween-80 104 % of control | dose: 100.0 mg/kg/injection, schedule: Q01DX001 (ip), vehicle: saline with Tween-80 107 % of control

CSCCC(NC(=O)c1ccccc1)C(=O)O (configuration not stated)
inactive: [7] 94 % of control | [8] 92 % of control | [9] 94 % of control

CCN(CC)CCOc1cc(C)cc2ccccc12
inactive: dose: 12.5 mg/kg/injection, schedule: Q04DX003 (ip), vehicle: saline 87 % of control | dose: 25.0 mg/kg/injection, schedule: Q04DX003 (ip), vehicle: saline 98 % of control | [1] 101 % of control | [3] 104 % of control

CC(C)(CC(=O)O)CC(=O)OCC(=O)[C@@]1(O)CC[C@H]2[C@@H]3CCC4=CC(=O)C=C[C@]4(C)[C@H]3[C@@H](O)C[C@@]21C
inactive: dose: 20.0 mg/kg/injection, schedule: Q01DX009 (ip), vehicle: steriod suspending solution 103 % of control | dose: 40.0 mg/kg/injection, schedule: Q01DX009 (ip), vehicle: steriod suspending solution 103 % of control | dose: 50.0 mg/kg/injection, schedule: Q01DX001 (sc), vehicle: steriod suspending solution 102 % of control | dose: 80.0 mg/kg/injection, schedule: Q01DX009 (ip), vehicle: steriod suspending solution 111 % of control | dose: 100.0 mg/kg/injection, schedule: Q01DX001 (sc), vehicle: steriod suspending solution 100 % of control | dose: 100.0 mg/kg/injection, schedule: Q01DX009 (sc), vehicle: steriod suspending solution 93 % of control | dose: 100.0 mg/kg/injection, schedule: Q04DX003 (sc), vehicle: steriod suspending solution 98 % of control | dose: 200.0 mg/kg/injection, schedule: Q01DX001 (sc), vehicle: steriod suspending solution 113 % of control | dose: 200.0 mg/kg/injection, schedule: Q01DX009 (sc), vehicle: steriod suspending solution 104 % of control and 118 % of control | dose: 200.0 mg/kg/injection, schedule: Q04DX003 (sc), vehicle: steriod suspending solution 110 % of control | dose: 400.0 mg/kg/injection, schedule: Q01DX001 (sc), vehicle: steriod suspending solution 107 % of control | dose: 400.0 mg/kg/injection, schedule: Q01DX009 (sc), vehicle: steriod suspending solution 102 % of control and 124 % of control | dose: 400.0 mg/kg/injection, schedule: Q04DX003 (sc), vehicle: steriod suspending solution 104 % of control

CC(=NCc1ccccc1)Nc1ccc(NC(=O)c2ccc(C(=O)Nc3ccc(NC(C)=NCc4ccccc4)cc3)cc2)cc1
inactive: dose: 15.0 mg/kg/injection, schedule: Q01DX Z (ip), vehicle: carboxymethylcellulose (CMC) 92 % of control | dose: 30.0 mg/kg/injection, schedule: Q01DX Z (ip), vehicle: carboxymethylcellulose (CMC) 103 % of control | dose: 60.0 mg/kg/injection, schedule: Q01DX Z (ip), vehicle: carboxymethylcellulose (CMC) 95 % of control | dose: 120.0 mg/kg/injection, schedule: Q01DX Z (ip), vehicle: carboxymethylcellulose (CMC) 97 % of control

Cc1ccc(NCN2C(=O)NC(c3ccccc3)(c3ccccc3)C2=O)cc1
inactive: dose: 100.0 mg/kg/injection, schedule: Q01DX001 (ip), vehicle: Klucel (hydroxypropylcellulose) (HPC) 93 % of control | dose: 200.0 mg/kg/injection, schedule: Q01DX001 (ip), vehicle: Klucel (hydroxypropylcellulose) (HPC) 103 % of control | dose: 400.0 mg/kg/injection, schedule: Q01DX001 (ip), vehicle: Klucel (hydroxypropylcellulose) (HPC) 92 % of control

CCN(C(C)(C)C(SSSC(c1ccc(Cl)cc1)C(C)(C)N(CC)S(C)(=O)=O)c1ccc(Cl)cc1)S(C)(=O)=O (configuration not stated)
inactive: dose: 100.0 mg/kg/injection, schedule: Q01DX009 (ip), vehicle: saline with Tween-80 91 % of control

Cc1c(O)cccc1N(C)C
inactive: [2] 112 % of control | dose: 100.0 mg/kg/injection, schedule: Q04DX003 (ip), vehicle: acetone 111 % of control | [4] 105 % of control | dose: 200.0 mg/kg/injection, schedule: Q04DX003 (ip), vehicle: acetone 106 % of control | [5] 88 % of control | [6] 91 % of control | dose: 400.0 mg/kg/injection, schedule: Q04DX003 (ip), vehicle: acetone 102 % of control | dose: 400.0 mg/kg/injection, schedule: Q04DX003 (ip), vehicle: saline 90 % of control

O=c1[nH]cnc2c1[nH]c(=S)n2C1OC(CO)C(O)C1O (configuration not stated)
inactive: [2] 108 % of control | [4] 96 % of control | [6] 100 % of control
